Columns and labels:
BChE = target: T1, BChE (Equus caballus, UniProt P81908); test: Ellman's assay, BChE inhibition; assay type: biochemical; details: for inhibition at 62.5 µg/mL: Conc. 62.5 µg/mL; for inhibition at 125 µg/mL: Conc. 125 µg/mL; for inhibition at 250 µg/mL: Conc. 250 µg/mL; for inhibition at 500 µg/mL: Conc. 500 µg/mL; for inhibition at 1000 µg/mL: Conc. 1000 µg/mL
T1 construct: The enzyme AChE is derived from Electric eel and BChE from equine serum; from tissue; host or cells: equine serum
T1 sequence (P81908 whole entry): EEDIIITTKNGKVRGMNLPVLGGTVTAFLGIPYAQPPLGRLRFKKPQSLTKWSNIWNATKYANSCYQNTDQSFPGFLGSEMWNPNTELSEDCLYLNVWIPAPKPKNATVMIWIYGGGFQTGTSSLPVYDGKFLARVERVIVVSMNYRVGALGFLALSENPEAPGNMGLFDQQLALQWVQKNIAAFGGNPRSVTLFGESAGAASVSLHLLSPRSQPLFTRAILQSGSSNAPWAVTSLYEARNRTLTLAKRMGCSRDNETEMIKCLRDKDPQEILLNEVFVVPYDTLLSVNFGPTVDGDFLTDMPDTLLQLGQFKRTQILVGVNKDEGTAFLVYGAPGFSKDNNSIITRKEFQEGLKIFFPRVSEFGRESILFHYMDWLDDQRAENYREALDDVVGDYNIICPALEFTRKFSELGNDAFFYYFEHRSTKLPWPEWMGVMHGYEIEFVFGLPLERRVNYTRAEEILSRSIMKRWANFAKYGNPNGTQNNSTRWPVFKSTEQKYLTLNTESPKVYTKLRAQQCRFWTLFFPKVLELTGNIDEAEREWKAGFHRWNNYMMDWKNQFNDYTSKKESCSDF
Experimental: (§1) The enzyme AChE is derived from Electric eel and BChE from equine serum. Buffer of phosphate, 0.1 M at pH 8.0 was prepared to whom varied concentration ([…]–1000 μg/mL) of the respective compound was added. The solution of AChE was diluted to 0.03 U/mL from 518 U/mg, similarly BChE from 7–16 U/mg to 0.01 U/mL at the given pH condition. Distilled water was used as solvent, for preparation of 0.5 mM acetylthiocholine iodide (ATchI), 0.2273 mM 5,5′-dithiobis-2-nitrobenzoic acid (DTNB) and 0.5 mM butyrylthiocholine iodide (BTchI). All solutions were stored at 8 °C in a refrigerator prior to performing the experiment.
(§2) Enzyme solution (5 μL), corresponding compound (205 μL), and DTNB reagent (5 μL) were mixed in a cuvette. The solution was incubated for 15 min at 30 °C followed by addition of 5 μL of the substrate solution. Absorbance of the incubated sample was measured at 412 nm by a double-beam spectrophotometer (Thermo Electron Corporation, USA) for 4 min along with the reaction time at 30 °C. The well-established Galanthamine was used as positive control and all experiments were performed in triplicate. The percent enzyme activity and enzyme inhibition by control and test samples were calculated from the rate of absorption with respect to change in time (V = ΔAbs/Δt) using the same procedure as reported previously.

melanin B16 cells = test system: melanin B16 cells; parameters: method as in PMID 21978680, PMID 28904627; details: ref [6],[42]; read-out: IC50 as melanin B16 inhibitor; cited from earlier work
AChE = target: T2, AChE (Electrophorus electricus, UniProt O42275); test: biochemical; details: for inhibition at 62.5 µg/mL: Conc. 62.5 µg/mL; for inhibition at 125 µg/mL: Conc. 125 µg/mL; for inhibition at 250 µg/mL: Conc. 250 µg/mL; for inhibition at 500 µg/mL: Conc. 500 µg/mL; for inhibition at 1000 µg/mL: Conc. 1000 µg/mL
T2 construct: The enzyme AChE is derived from Electric eel and BChE from equine serum; from tissue
T2 sequence (O42275 24-633): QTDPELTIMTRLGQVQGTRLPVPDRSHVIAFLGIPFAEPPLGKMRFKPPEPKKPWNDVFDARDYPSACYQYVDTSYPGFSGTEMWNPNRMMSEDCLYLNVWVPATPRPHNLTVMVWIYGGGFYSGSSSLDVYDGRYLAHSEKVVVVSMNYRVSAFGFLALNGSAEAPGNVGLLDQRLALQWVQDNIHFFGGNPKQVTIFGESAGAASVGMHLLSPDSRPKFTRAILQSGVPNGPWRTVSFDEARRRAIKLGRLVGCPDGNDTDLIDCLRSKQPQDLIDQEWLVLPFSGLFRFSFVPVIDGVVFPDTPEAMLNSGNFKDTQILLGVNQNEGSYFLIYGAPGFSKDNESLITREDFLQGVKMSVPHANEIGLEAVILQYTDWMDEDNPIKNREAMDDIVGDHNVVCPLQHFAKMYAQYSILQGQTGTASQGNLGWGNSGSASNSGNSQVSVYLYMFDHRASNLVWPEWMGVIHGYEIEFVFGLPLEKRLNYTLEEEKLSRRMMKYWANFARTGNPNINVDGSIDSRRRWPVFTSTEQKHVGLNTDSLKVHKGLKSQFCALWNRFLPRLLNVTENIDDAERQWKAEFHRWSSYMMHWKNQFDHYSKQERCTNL
Experimental: as §1, §2

mushroom tyrosinase = test system: mushroom tyrosinase; parameters: method as in PMID 21978680, PMID 28904627; details: ref [6],[42]; cited from earlier work

S=C(Nc1ccccc1)Nc1ccc(Cl)cc1 [Compound 6, 1-(4-chlorophenyl)-3-phenylthiourea]
IC50 (BChE): 1010 µM | inhibition at 62.5 µg/mL (BChE): 33 ± 1.15% | inhibition at 125 µg/mL (BChE): 42.7 ± 0.89% | inhibition at 250 µg/mL (BChE): 49 ± 0.58% | inhibition at 500 µg/mL (BChE): 63.03 ± 0.23% | inhibition at 1000 µg/mL (BChE): 71.33 ± 0.49% | IC50 (melanin B16 cells): 3.4 µM | IC50 (AChE): 1080 µM | inhibition at 62.5 µg/mL (AChE): 31.9 ± 0.48% | inhibition at 125 µg/mL (AChE): 39 ± 0.48% | inhibition at 250 µg/mL (AChE): 47.9 ± 0.96% | inhibition at 500 µg/mL (AChE): 61.6 ± 1.34% | inhibition at 1000 µg/mL (AChE): 69.6 ± 1.12% | potency as mushroom tyrosinase inhibitor (mushroom tyrosinase): moderate potency

S=C(Nc1ccccc1)Nc1ccccc1Cl [Compound 5, 1-(2-chlorophenyl)-3-phenylthiourea]
IC50 (BChE): 1180 µM | inhibition at 62.5 µg/mL (BChE): 31.7 ± 0.61% | inhibition at 125 µg/mL (BChE): 37.5 ± 0.5% | inhibition at 250 µg/mL (BChE): 44.5 ± 0.64% | inhibition at 500 µg/mL (BChE): 63.86 ± 0.6% | inhibition at 1000 µg/mL (BChE): 71.6 ± 0.74% | IC50 (AChE): 1310 µM | inhibition at 62.5 µg/mL (AChE): 29 ± 0.3% | inhibition at 125 µg/mL (AChE): 35.5 ± 0.5% | inhibition at 250 µg/mL (AChE): 41.7 ± 0.77% | inhibition at 500 µg/mL (AChE): 59.7 ± 0.61% | inhibition at 1000 µg/mL (AChE): 66.79 ± 0.63%

CC(C)CNC(=S)NC1CCCCC1 [Compound 1, 1-isobutyl-3-cyclohexylthiourea]
IC50 (BChE): 392 µM | inhibition at 62.5 µg/mL (BChE): 46.9 ± 0.42% | inhibition at 125 µg/mL (BChE): 56.4 ± 0.63% | inhibition at 250 µg/mL (BChE): 61 ± 0.33% | inhibition at 500 µg/mL (BChE): 66.2 ± 0.73% | inhibition at 1000 µg/mL (BChE): 74.4 ± 0.68% | IC50 (AChE): 415 µM | inhibition at 62.5 µg/mL (AChE): 46.52 ± 0.38% | inhibition at 125 µg/mL (AChE): 53.64 ± 0.16% | inhibition at 250 µg/mL (AChE): 57.6 ± 1.7% | inhibition at 500 µg/mL (AChE): 63.94 ± 0.45% | inhibition at 1000 µg/mL (AChE): 69.47 ± 0.22%

S=C(Nc1cccc(Cl)c1)NC1CCCCC1 [Compound 3, 1-(3-chlorophenyl)-3-cyclohexylthiourea]
IC50 (BChE): 223 µM | inhibition at 62.5 µg/mL (BChE): 49.9 ± 0.65% | inhibition at 125 µg/mL (BChE): 57.2 ± 0.57% | inhibition at 250 µg/mL (BChE): 65.5 ± 1.04% | inhibition at 500 µg/mL (BChE): 71.3 ± 1.11% | inhibition at 1000 µg/mL (BChE): 76.7 ± 0.66% | IC50 (AChE): 186 µM | inhibition at 62.5 µg/mL (AChE): 51.9 ± 1.16% | inhibition at 125 µg/mL (AChE): 57.34 ± 0.55% | inhibition at 250 µg/mL (AChE): 61.36 ± 0.49% | inhibition at 500 µg/mL (AChE): 67.39 ± 0.49%

CC(C)(C)NC(=S)NC1CCCCC1 [Compound 2, 1-tert-butyl-3-cyclohexylthiourea]
IC50 (BChE): 863 µM | inhibition at 62.5 µg/mL (BChE): 41.3 ± 1.01% | inhibition at 125 µg/mL (BChE): 46.7 ± 0.78% | inhibition at 250 µg/mL (BChE): 51.4 ± 1.65% | inhibition at 500 µg/mL (BChE): 57.9 ± 0.97% | inhibition at 1000 µg/mL (BChE): 65.2 ± 0.72% | IC50 (AChE): 1400 µM | inhibition at 62.5 µg/mL (AChE): 38.7 ± 0.68% | inhibition at 125 µg/mL (AChE): 44.7 ± 1.25% | inhibition at 250 µg/mL (AChE): 48 ± 0.75% | inhibition at 500 µg/mL (AChE): 56.3 ± 1.06% | inhibition at 1000 µg/mL (AChE): 63.3 ± 0.98%

CCCCN(CCCC)C(=S)Nc1ccccc1 [Compound 4, 1-(1,1-dibutyl)-3-phenylthiourea]
IC50 (BChE): 238 µM | inhibition at 31.5 µg/mL (BChE; Conc. 31.5 µg/mL): 47.3 ± 0.7% | inhibition at 62.5 µg/mL (BChE): 53.5 ± 0.9% | inhibition at 125 µg/mL (BChE): 77.4 ± 1.7% | inhibition at 250 µg/mL (BChE): 89.8 ± 1.5% | inhibition at 500 µg/mL (BChE): 94.4 ± 0.5% | inhibition at 1000 µg/mL (BChE): 98% | IC50 (AChE): 219 µM | inhibition at 31.5 µg/mL (AChE; Conc. 31.5 µg/mL): 39 ± 0.88% | inhibition at 62.5 µg/mL (AChE): 47.9 ± 0.47% | inhibition at 125 µg/mL (AChE): 71.8 ± 1.5% | inhibition at 250 µg/mL (AChE): 77.8 ± 2.26% | inhibition at 500 µg/mL (AChE): 85.4 ± 0.2% | inhibition at 1000 µg/mL (AChE): 93.6 ± 1.12%

Source: PMC8347686, “Thiourea Derivatives, Simple in Structure but Efficient Enzyme Inhibitors and Mercury Sensors” (Molecules, 2021)
